From PMC5756575, “In Vitro Biotransformation, Safety, and Chemopreventive Action of Novel 8-Methoxy-Purine-2,6-Dione Derivatives” (Applied Biochemistry and Biotechnology, 2017)
Entries after “also recorded” stand apart in the source; their conditions may differ. Where two headings read alike, the source gives them in different places.

Legend:
[1] = system: Cunninghamella elegans 1906 DMS; test: Cunninghamella biotransformation assay, C. elegans; format: in vitro ADME; conditions: 0.5 mg/mL, 7-day incubation, LC-MS/MS
Protocol: (§1) Three different strains of Cunninghamella were used: Cunninghamella echinulata NRRL 1384, Cunninghamella blakesleeana 1908 DMS, and Cunninghamella elegans 1906 DMS. The first was provided by Dr. A.J. Carnell (University of Liverpool, UK), whereas the two remaining were purchased from Deutsche Sammlung von Mikroorganismen und Zellkulturen GmbH (DMSZ, Braunschweig, Germany).
(§2) Cunninghamella strains were cultivated on solid potato dextrose agar (PDA) plates at 28 °C. After 4 days, a liquid fermentation basal medium was prepared by the addition of 6 g of D-glucose, 1.5 g of NaCl, 1.5 g of yeast extract from Saccharomyces cerevisiae, and 1.5 g of K2HPO4 to 300 mL of distilled water. Aliquots of 24.5 mL of medium were inoculated with 300 μL of suspension of fungal spores obtained after wetting colonies in PDA. The fungi were incubated with shaking until the formation of spherical clumps.
(§3) Compounds 2–4 were evaluated in this experiment. Once microorganisms formed spherical clumps in the preliminary incubation, the corresponding tested compound was added to the broth and the mixture was incubated for 7 days. Two control experiments were also performed, in the absence of compound and fungus, respectively. Biotransformation progress was monitored by TLC and by liquid chromatography electrospray ionization-tandem mass spectrometry (LC-MS/MS). Monitoring was performed at four different incubation times: 30 min, 3 days, 5 days, and 7 days.
(§4) To analyze metabolites in LC-MS/MS, an aliquot of 500 μL of filtered sample was taken and extracted with 500 μL of dichloromethane. The organic fraction was dried with sodium sulfate, filtered, and evaporated. The obtained residue was analyzed in LC-MS/MS. At the end of experiment, all the remaining medium was extracted with 25 mL of dichloromethane after separating the fungal clumps by filtration over cellulose filters.
(§5) Agilent 1100 HPLC system (Agilent Technologies, Waldbronn, Germany) equipped with a Xbridge™ C18 analytical column (2.1 × 30 mm, […]; Waters, Dublin, Ireland) was used in the chromatographic separation of LC-MS/MS analysis. An elution gradient of acetonitrile and water, with 0.1% of formic acid, was used as a mobile phase. MS spectra were taken at Applied Biosystems MDS Sciex API 200 triple quadrupole mass analyzer (Concord, Ontario, Canada) with an electrospray ionization (ESI) interface between HPLC and MS.

[2] = system: Cunninghamella blakesleeana 1908 DMS; test: Cunninghamella biotransformation assay, C. blakesleeana; format: in vitro ADME; conditions: 0.5 mg/mL, 7-day incubation, LC-MS/MS
Protocol: as §1, §2, §3, §4, §5

[3] = system: Cunninghamella echinulata NRRL 1384; test: Cunninghamella biotransformation assay, C. echinulata; format: in vitro ADME; conditions: 0.5 mg/mL, 7-day incubation, LC-MS/MS
Protocol: as §1, §2, §3, §4, §5

[4] = system: Vibrio harveyi BB7XM; format: cell-based; conditions: compound 40 ng/mL + NQNO 40 ng/mL; for Number of revertants per plate, Mean ± SD: antimutagenicity, NQNO line = NQNO as a single compound
Description: (§6) Four Vibrio harveyi strains were used in this study: a wild-type BB7 (naturally found in the Baltic Sea) and three genetically modified strains, namely BB7M (obtained by the introduction of pAB1273 plasmid containing the genes mucA and mucB to enhance the error-prone DNA repair), BB7X (hypersensitive to UV radiation after genetic modification with Tn5TpMCS), and BB7XM (containing the two abovementioned modifications). These strains were kindly provided by Prof. G. Węgrzyn (Department of Molecular Biology, University of Gdańsk, Poland).
(§7) It causes point mutations at the genome as it induces G:C → A:T transitions in Vibrio harveyi strains and in other bacteria such as Escherichia coli and S. typhimurium. […] Next, its working solution was prepared in sterile water, being 40 ng/mL its final concentration.
(§8) Procedure followed in the V. harveyi antimutagenicity assay was similar to the mutagenicity method described before. […] The results were expressed as the inhibition percentage of mutagenic effect, which was calculated with the formula: 100 − [(R 1/R 2) × 100], where R 1 is the number of revertants per plate in the presence of both mutagen and tested substance, and R 2 is the number of revertants per plate in the presence of mutagen. […] S. typhimurium antimutagenicity assay was based on similar assumptions as the V. harveyi antimutagenicity test. In this case, the chemopreventive activity was determined at two concentrations of a tested compounds and a standard mutagen, i.e., 40 and 500 ng/mL.

[5] = system: rat liver microsomes; test: Microsomal stability assay; format: in vitro ADME; conditions: rat liver microsomes, 1 h of incubation
Protocol: Compounds 1 and 3 were studied in a biotransformation assay using rat liver microsomes following procedures described previously. The reagents used in this assay were levallorphan (internal standard) and NADPH-regenerating system, which contained phosphate buffer (pH 7.4), NADP^+, glucose-6-phosphate, and glucose-6-phosphate dehydrogenase. The final protein concentration in the assay was 0.4 mg/mL. Compounds 1 and 3 were tested at a final concentration of 20 μM.
The amount of a parental compound remaining in a solution after biotransformation was monitored using LC-MS/MS as described previously in “Cunninghamella Biotransformation Assay.” Graphs representing ln of percentage of parent compound remaining versus incubation time were drawn to calculate in vitro half-time (t1/2) from the slope of linear regression. To obtain intrinsic clearance (Clint) of a tested compound in rat liver microsomal assay, t1/2 previously calculated was substituted at the equation Clint = [(Vmic/Pmic) × 0.693/t1/2], being Vmic and Pmic the volume of incubation in microliters and the amount of incubated protein in milligrams, respectively.
as §5

[6] = system: Vibrio harveyi BB7X; test: Vibrio harveyi antimutagenicity assay against NQNO, BB7X; format: cell-based; conditions: compound 40 ng/mL + NQNO 40 ng/mL; for Number of revertants per plate, Mean ± SD: antimutagenicity, NQNO line = NQNO as a single compound
Description: as §6, §7, §8

[7] = system: Vibrio harveyi BB7XM; test: Vibrio harveyi mutagenicity assay, BB7XM; format: cell-based; conditions: 40 ng/mL; for MI (mutagenicity index): mutagenic if MI above 2.0; for Number of revertants per plate, Mean ± SD: mutagenicity
Protocol: (§9) From them, 0.2 mM working solutions were prepared by dilution with water. […] Working solutions were prepared by 1:100 dilution of stock solution in water, and final compound concentration assayed was 40 ng/mL.
as §6, §7
(§10) To perform the V. harveyi mutagenicity test, 10 μL of a working solution of the tested compound (100 μg/mL) were added to V. harveyi bacterial culture (OD600 = 0.1) in NaCl-containing BOSS liquid medium, being 40 ng/mL the final concentration of the tested compound. […] Then, an inoculum containing 5 × 10^6 cells was added to solid BOSS agar plate supplemented with neomycin sulfate at a final concentration of 100 μg/mL. Samples were left incubating 48 h at 30 °C, and revertant colonies were counted manually.

[8] = system: Vibrio harveyi BB7M; test: Vibrio harveyi antimutagenicity assay against NQNO, BB7M; format: cell-based; conditions: compound 40 ng/mL + NQNO 40 ng/mL; for Number of revertants per plate, Mean ± SD: antimutagenicity, NQNO line = NQNO as a single compound
Description: as §6, §7, §8

[9] = system: Vibrio harveyi BB7; test: Vibrio harveyi antimutagenicity assay against NQNO, BB7; format: cell-based; conditions: for % inhibition of NQNO mutagenicity / Number of revertants per plate, Mean ± SD: BB7, compound 40 ng/mL + NQNO 40 ng/mL; for Number of revertants per plate, Mean ± SD: antimutagenicity, NQNO line = NQNO as a single compound; for chemopreventive (antimutagenic) effect, class: wild BB7 strain, against NQNO
Description: as §6, §7, §8

[10] = system: Salmonella typhimurium TA100; test: Ames mutagenicity test; format: cell-based
Protocol: From them, 0.2 mM working solutions were prepared by dilution with water. […]
(§11) In the Ames test, Salmonella typhimurium TA100 strain was used. This strain has a base-pair substitution that can be reverted by mutations at GC pairs. In addition, it contains mutations at uvrB-bio and rfa genes to eliminate excision repair mechanisms and to make the bacteria more permeable to chemicals, respectively. Finally, TA100 also includes pKM101 plasmid, which enhances both chemical and UV-induced mutagenesis via an increase in the error-prone recombinational DNA repair pathway. TA100 strain of S. typhimurium was provided by Dr. T. Nohmi (Division of Genetics and Mutagenesis, National Institute of Hygienic Sciences, Tokyo, Japan). V. harveyi and S. typhimurium bacterial cultures were maintained at 30 and 37 °C, respectively.
It causes point mutations at the genome as it induces G:C → A:T transitions in Vibrio harveyi strains and in other bacteria such as Escherichia coli and S. typhimurium. […]
S. typhimurium was cultivated in a fresh medium 12 h prior to a test. To perform mutagenicity assay, 100 μL of an overnight culture (containing approx. 1 × 10^8 to 2 × 10^8 bacteria) were inoculated along with 50 μL of a tested compound in 2 mL of top agar supplemented with traces of histidine and of biotin. Then the mixture was added over the surface of GM agar plates and was left incubating 48 h at 37 °C. Afterwards, the colonies were counted manually.

[11] = system: Vibrio harveyi BB7M; conditions: 40 ng/mL; for MI (mutagenicity index): mutagenic if MI above 2.0; for Number of revertants per plate, Mean ± SD: mutagenicity
Protocol: as §9, §6, §7, §10

[12] = system: Vibrio harveyi BB7; conditions: BB7, 40 ng/mL; for MI (mutagenicity index): mutagenic if MI above 2.0; for Number of revertants per plate, Mean ± SD: mutagenicity
Protocol: as §9, §6, §7, §10

[13] = system: Vibrio harveyi BB7X; conditions: 40 ng/mL; for MI (mutagenicity index): mutagenic if MI above 2.0; for Number of revertants per plate, Mean ± SD: mutagenicity
Protocol: as §9, §6, §7, §10

[14] = system: Salmonella typhimurium TA100; test: S. typhimurium antimutagenicity assay against NQNO; format: cell-based; conditions: for Number of revertants per plate, Mean ± SD: antimutagenicity, NQNO line = NQNO as a single compound
Description: as §11, §7, §8

[15] = system: Cunninghamella strains; test: Cunninghamella biotransformation assay, three strains together and blank without fungus; format: in vitro ADME; conditions: three strains, LC-MS/MS
Protocol: as §1, §2, §3, §4
Agilent 1100 HPLC system (Agilent Technologies, Waldbronn, Germany) equipped with a Xbridge™ C18 analytical column (2.1 × 30 mm, […]; Waters, Dublin, Ireland) was used in the chromatographic separation of LC-MS/MS analysis. […]

[16] = TA100, 40 ng/mL, mutagenic if MI >2.0
[17] = TA100, 500 ng/mL (NQNO control stated as 40 ng/mL in method)
[18] = TA100, compound and NQNO 40 ng/mL
[19] = TA100, compound and NQNO 500 ng/mL

SMILES: COc1nc2c(c(=O)n(C)c(=O)n2C)n1CCCC(=O)NCc1ccc(O)cc1 [3-M4]
- % of compound/metabolite in C. elegans [1]: – – – 0.6%
- % of compound/metabolite in C. blakesleeana [2]: – – – 4.6%
- % of compound/metabolite in C. echinulata [3]: 4.2%

SMILES: COc1nc2c(c(=O)n(C)c(=O)n2C)n1CCCC(=O)N1CCN(c2ccc(O)cc2)CC1 [4-M1]
- % of compound/metabolite in C. elegans [1]: 53.0%
- % of compound/metabolite in C. blakesleeana [2]: 66.6%
- % of compound/metabolite in C. echinulata [3]: 87.6%

SMILES: COc1nc2c(c(=O)n(C)c(=O)n2C)n1CC(=O)O [Compound 1, 2-(8-methoxy-1,3-dimethyl-2,6-dioxo-purin-7-yl)acetic acid]
- Number of revertants per plate, Mean ± SD [4]: 69 ± 10
- % inhibition of NQNO mutagenicity [4]: 10%
- metabolic stability in microsomal biotransformation (in words) [5]: metabolically stable
- Number of revertants per plate, Mean ± SD [6]: 28 ± 7
- % inhibition of NQNO mutagenicity [6]: 74%
- MI (mutagenicity index) [7]: 1.1
- Number of revertants per plate, Mean ± SD [7]: 37 ± 11
- Number of revertants per plate, Mean ± SD [8]: 60 ± 10
- % inhibition of NQNO mutagenicity [8]: 39%
- % inhibition of NQNO mutagenicity [9]: 20%
- Number of revertants per plate, Mean ± SD [9]: 44 ± 6
- chemopreventive (antimutagenic) effect, class [9]: moderate or a close to moderate
- Number of revertants per plate, Mean ± SD ([10]; TA100, 40 ng/mL): 12 ± 5
- MI (mutagenicity index) [10, 16]: 0.3
- MI (mutagenicity index) [10, 17]: 0.6
- Number of revertants per plate, Mean ± SD [10, 17]: 16 ± 3
- MI (mutagenicity index) [11]: 1.2
- Number of revertants per plate, Mean ± SD [11]: 33 ± 8
- MI (mutagenicity index) [12]: 0.9
- Number of revertants per plate, Mean ± SD [12]: 12 ± 2
- MI (mutagenicity index) [13]: 1.4
- Number of revertants per plate, Mean ± SD [13]: 30 ± 1
- % inhibition of NQNO mutagenicity [14, 18]: 88%
- % inhibition of NQNO mutagenicity [14, 19]: 95%
- Number of revertants per plate, Mean ± SD [14, 18]: 10 ± 3
- Number of revertants per plate, Mean ± SD [14, 19]: 5 ± 3

SMILES: COC(=O)Cn1c(OC)nc2c1c(=O)n(C)c(=O)n2C [Compound 2, methyl 2-(8-methoxy-1,3-dimethyl-2,6-dioxo-purin-7-yl)acetate]
- biotransformation / detectable metabolites in Cunninghamella model (in words) [15]: did not undergo any biotransformation; also recorded: None of the three Cunninghamella strains evaluated generated detectable metabolites
- Number of revertants per plate, Mean ± SD [4]: 68 ± 8
- % inhibition of NQNO mutagenicity [4]: 12%
- Number of revertants per plate, Mean ± SD [6]: 35 ± 6
- % inhibition of NQNO mutagenicity [6]: 68%
- MI (mutagenicity index) [7]: 1.6
- Number of revertants per plate, Mean ± SD [7]: 53 ± 8
- Number of revertants per plate, Mean ± SD [8]: 45 ± 10
- % inhibition of NQNO mutagenicity [8]: 54%
- % inhibition of NQNO mutagenicity [9]: 38%
- Number of revertants per plate, Mean ± SD [9]: 34 ± 7
- chemopreventive (antimutagenic) effect, class [9]: moderate or a close to moderate
- Number of revertants per plate, Mean ± SD ([10]; TA100, 40 ng/mL): 10 ± 3
- MI (mutagenicity index) [10, 16]: 0.3
- MI (mutagenicity index) [10, 17]: 0.5
- Number of revertants per plate, Mean ± SD [10, 17]: 14 ± 5
- MI (mutagenicity index) [11]: 1.3
- Number of revertants per plate, Mean ± SD [11]: 36 ± 9
- MI (mutagenicity index) [12]: 1.2
- Number of revertants per plate, Mean ± SD [12]: 15 ± 2
- MI (mutagenicity index) [13]: 1.2
- Number of revertants per plate, Mean ± SD [13]: 27 ± 2
- % inhibition of NQNO mutagenicity [14, 18]: 92%
- % inhibition of NQNO mutagenicity [14, 19]: 91%
- Number of revertants per plate, Mean ± SD [14, 18]: 7 ± 2
- Number of revertants per plate, Mean ± SD [14, 19]: 9 ± 4
